Measured values reported in the METLIN SMRT retention time set (Domingo-Almenara et al. 2019).

Assay: gradient 5% acetonitrile 3 min, to 50% in 2 min, to 85% in 15 min, held 3 min, 100 µL/min
Details: column: Zorbax Extend-C18 2.1 x 50 mm; eluents: water / acetonitrile, 0.1% formic acid
Procedure, shortened: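 A Zorbax Extend-C18 column (2.1 × 50 mm, 1.8 μm) run at 100 μL/min with water and acetonitrile, both containing 0.1% formic acid, separated mixtures of ~100 pure standards. The HPLC was coupled to a quadrupole time-of-flight mass spectrometer operated in positive and negative ionization mode, with dead and dwell volumes of 40 μL and 900 μL. Each retention time was taken from a computationally picked adduct peak that was then manually inspected.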

| RP-LC retention time [s] | Compound |
| --- | --- |
| 886 | CCOC(=O)C1=C(CNc2ccc(F)cc2F)NC(=O)NC1c1ccccc1 (stereo unspecified) |
| 884 | Cc1cc(N2CCN(S(=O)(=O)c3ccc(Cl)cc3)CC2)nc(NC2CCCCC2)n1 |
| 690 | CCOc1ccc(NC(=O)C2(C)CCCCC(=O)N2)cc1 (stereo unspecified) |
| 857 | Cc1nc(-c2ccc3c(c2)n(CC(=O)NC2CCCCC2)c(=O)n3C(C)C)no1 |
| 852 | O=C(c1ccc(Br)o1)N1CCCC(c2nnc(-c3ccccc3)o2)C1 (stereo unspecified) |
| 691 | CC1Oc2ccccc2N(CC(=O)NC2CC2)C1=O (stereo unspecified) |
| 700 | CNC(=O)c1ccc(N2CCCN(Cc3ccccc3C)C2=O)cc1 |
| 710 | CN(C)c1cccc(C(=O)N2CCC3(C2)C(=O)N(C)c2ccccc23)c1 (stereo unspecified) |
| 1170 | CCOc1ccc(-c2nc(-c3ccc(NS(=O)(=O)c4cccs4)cc3)no2)cc1 |
| 834 | COC(=O)CNC(=O)NC(Cc1ccc(F)cc1)Cc1ccc2c(c1)OCO2 (stereo unspecified) |
| 1230 | CCCCOc1ccc(C(=O)N2CCCC2c2nc(-c3ccccc3)no2)cc1 (stereo unspecified) |
| 614 | Cn1c(C(=O)N2CCCC(C(=O)N3CCN(c4ccccn4)CC3)C2)cc2sccc21 (stereo unspecified) |
| 594 | COc1ccccc1CCC(=O)N1CCn2cnnc2C1 |
| 791 | Cc1ccc(N2CCN(Cc3nc(-c4ccc(N5CCOCC5)nc4)no3)CC2)cc1 |
| 580 | Cc1cc(N2CCN(C)CC2)nc2ccc(NC(=O)Nc3ccc4c(c3)OCCO4)cc12 |
| 724 | OC(COc1ccccc1)CN1CCN(c2ccccc2)CC1 (stereo unspecified) |
| 629 | C=C(C)C(=O)Nc1ccc(NC(C)C)cc1 |
| 1030 | Cc1ccc(CNC(=O)C(C)Oc2cc(C(F)(F)F)c3c(C)nn(C)c3n2)cc1 (stereo unspecified) |
| 706 | COc1ccc2c(CCNC(=O)C(C)C)c[nH]c2c1 |
| 674 | COc1cc([C@@H]2c3cc4c(cc3[C@H](O)[C@@H](CO)[C@@H]2C(=O)NCc2ccc(C)o2)OCO4)cc(OC)c1OC |
| 670 | Cc1cccc(NC(=O)Nc2ccc(-c3cn4ccc(C)nc4n3)cc2)c1 |
| 655 | COCCc1nnc(NC(=O)COc2ccc(Cl)cc2)o1 |

| RP-LC retention time [s] | Compound |
| --- | --- |
| 789 | Cc1ccc(-n2nc(C)c(S(=O)(=O)N3CCC(C(=O)NC4CC4)CC3)c2C)cc1 |
| 585 | CNC(=O)[C@@H]1CN(C(=O)c2cscn2)C[C@H]1c1nc(C)no1 |
| 574 | CCC(C)NC(=O)C1CCN(CCc2cn(C)c3ncccc23)CC1 (stereo unspecified) |
| 781 | Cc1sc2ccn(C)c(=O)c2c1C(=O)NCc1cc(F)ccc1F |
| 647 | O=C(Nc1ccc(-c2cn3cccnc3n2)cc1)c1ccc(F)c(F)c1 |
| 910 | Cn1c(C(=O)Nc2ccc3c(c2)OCCO3)cc2c(=O)oc3ccccc3c21 |
| 1190 | O=S(=O)(c1cc(-c2nnc(-c3ccc(F)cc3)o2)ccc1Cl)N1CCCCC1 |
| 737 | CC(C)c1noc(-c2cc(=O)n(CC(=O)Nc3ccc(N(C)C)cc3)c3ccccc23)n1 |
| 681 | O=C(O)/C=C/C(=O)N1Cc2cc3ccccc3nc2C1 |
| 976 | CCc1ccc(NC(=O)N2CCCC2c2nc(-c3ccccc3OC)no2)cc1 (stereo unspecified) |
| 900 | Cc1ccc(NC(=O)CN2CCc3ccccc3C2C(=O)N2CCCCC2)cc1C (stereo unspecified) |
| 1080 | Cc1cccc(CNC(=O)CN2C(=O)C3CCCCN3c3ccc(S(=O)(=O)N4CCCC4)cc32)c1 (stereo unspecified) |
| 654 | CC(=O)N1CCc2[nH]c3ccc(C(=O)Nc4ccc(N5CCOCC5)cc4)cc3c2C1 |
| 763 | COC(=O)C1=CN(c2cccc(C#N)c2)c2cc(F)ccc2S1(=O)=O |
| 544 | COCCN1C(=O)CC[C@]2(C(=O)N(C)Cc3cccnc3)CCCC[C@@H]12 |
| 931 | Cc1c(C(=O)N2CCOCC2)cnn1-c1cc(-c2nc(C(C)(C)C)no2)ccn1 |
| 1120 | CCc1ccc(C(=O)Nc2cc(-c3ccn[nH]3)sc2C)cc1 |
| 882 | CC1CN(c2nc3ccccc3nc2SCC(=O)N2CCOCC2)CC(C)O1 (stereo unspecified) |
| 694 | Cc1ccc(NC(=O)N2CCCC(Cn3c(C4CC4)nc4cccnc43)C2)cc1C (stereo unspecified) |
| 764 | CCCC(=O)N1CCC2(CC1)C(=O)N(C)c1ccccc12 |
| 978 | O=C(CN1C(=O)C(C(=O)N2CCCC2)Sc2ccccc21)Nc1ccc(F)cc1 (stereo unspecified) |
| 766 | CCCNC(=O)Cn1nc2cc(-c3ccccc3)nc(C)n2c1=O |

| RP-LC retention time [s] | Compound |
| --- | --- |
| 627 | Cc1nn(CC(=O)NCCCN2CCCCC2)c(=O)c2nc(-c3ccccc3)sc12 |
| 1360 | CCOC(=O)c1c(C)oc2ncnc(Nc3cc(Cl)ccc3OC)c12 |
| 836 | COc1cc2c(cc1O)CCC1C2CC[C@@]2(C)C1CC[C@@H]2O (stereo partly specified) |
| 732 | CC12C=CC(=O)C=C1CCC1C2=CCC2(C)C1CC[C@@H]2C(=O)CN1CCN(c2cc(N3CCCC3)nc(N3CCCC3)n2)CC1 (stereo partly specified) |
| 961 | Cc1ccc(-n2c(N3CCCC(C(=O)NCC(C)c4ccccc4)C3)nc3ccsc3c2=O)cc1 (stereo unspecified) |
| 587 | COc1ccc(CN2C[C@@H]3C(=O)N(C)C(=O)[C@@H]3C2)c(OC)c1 |
| 1160 | CCCN1C(=O)COc2ccc(-c3noc(-c4ccccc4F)n3)cc21 |
| 589 | CC1(O)CCOC2(CCN(Cc3cccc4[nH]ccc34)CC2)C1 (stereo unspecified) |
| 707 | C=CCNC(=O)C1CCCN(C(=O)Nc2ccc(NC(=O)Nc3ccccc3)cc2)C1 (stereo unspecified) |
| 1110 | CCNC(=O)CCc1nc2ccccc2n(CC(=O)NCc2cccc(OC)c2OC)c1=O |
| 608 | Cn1cccc1C(=O)NC(C)(C)c1nc2c(c(C(N)=O)n1)OCCO2 |
| 748 | O=C(Nc1cc(F)cc(F)c1)Nc1cccc(-c2ccc(N3CCOCC3)nn2)c1 |
| 1010 | COC(=O)c1ccc(-c2nc3cnccn3c2Nc2ccc(C)cc2C)cc1 |
| 1220 | CC1=NS(=O)(=O)N(Cc2ccccc2)C=C1C(=O)OCc1nc(-c2ccc(Cl)cc2)no1 |
| 794 | CCOC(=O)C1=Cc2ccc(C(F)(F)C(F)(F)F)cc2N=C(N)C1 |
| 638 | COc1ccccc1C(=O)Nc1ccc2nc(N3CCN(C4CCCCC4)CC3)cc(C(=O)O)c2c1 |
| 675 | COc1ccc2[nH]c3c(c2c1)CCNC31CCN(S(=O)(=O)c2c(C)noc2C)CC1 |
| 1060 | O=C(Nc1cccc(C(F)(F)F)c1)c1cnc(-c2ccc(F)cc2)nc1-c1ccncc1 |
| 756 | COc1ccc(S(=O)(=O)NCc2cccnc2-c2cccc(C)c2)cc1Cl |
| 966 | CCOC(=O)c1cc(S(=O)(=O)N2CCCC2C(=O)NC2CCC(C)CC2)cn1C (stereo unspecified) |
| 938 | COc1ccc(NC(=O)Cn2c(=O)cc(-c3nc(C(C)C)no3)c3ccccc32)cc1 |

| Compound | RP-LC retention time [s] |
| --- | --- |
| CCN(CC)C(=O)c1ccc2c(c1)N(CC(=O)N1CCCC1)C(=O)C1CCCCN21 (stereo unspecified) | 753 |
